What was measured:
[1] = tested on: BxPC-3 cells; test: SRB antiproliferative assay, BxPC-3; assay type: cell-based, human; details: for Cell growth percentage: BxPC-3, 10 μM, 72 h exposure; for IC50: Homo sapiens, BxPC-3, 72 h, mean ± SEM, read-out: Half-maximal inhibitory concentration (IC50)
Experimental: (§1) The cytotoxic activity of the nortopsentin derivatives 3b, 3e, 4c, 5b, and 6c on pancreatic cancer cells (BxPC-3, Panc-1, Suit-2, Capan-1, PaTu-T, primary PDAC-3 and resistant Panc-1-GR cells) was determined by the sulforhodamine B (SRB) chemosensitivity assay, as described previously. Cells were plated in 96-well flat-bottom plates at final concentrations ranging from 3000–5000 cells/well in 100 µL of medium. After a 24 h pre-incubation period, cells were treated with the compounds at nine screening concentrations (from 0.1 μM to 40 μM) in triplicate and incubated at 37 °C for 72 h. After the treatment, cells were fixed with 25 µL of cold 50% trichloroacetic acid (TCA) for each well and incubated at 4 °C for 1 h. Afterwards, plates were washed five times with demi-water and air-dried overnight. Then, the plates were stained with 50 µL of 0.4% SRB solution in 1% acetic acid for 15 min. The excess stain was rinsed off by placing the plates under running 1% acetic acid and allowed to dry at room temperature overnight. SRB staining was rinsed with 150 µL tris(hydroxymethyl)aminomethane solution pH = 8.8 (TRIS-base), and the optical density (OD) was read at 492 nm. Each assay was performed in triplicate and assays were repeated at least three times. The comparison of the average optical density of the growth in control wells with that in the sample wells allowed the estimation of the percentage of cell growth, using the following equation: % Cell Growth = (mean ODcompound − mean ODday zero plate)/(mean ODcells − mean ODday zero plate) × 100
(§2) The results obtained were adjusted by the day zero plate (wells containing cells growing for only 24 h) and normalized by the control cells (wells with untreated cells) to obtain the rate of viable cells.

[2] = tested on: Panc-1 cells; test: SRB antiproliferative assay, Panc-1; assay type: cell-based, human; details: for Cell growth percentage: Panc-1, 10 μM, 72 h exposure; for IC50: Homo sapiens, Panc-1, 72 h, mean ± SEM, read-out: Half-maximal inhibitory concentration (IC50)
Experimental: as §1, §2

[3] = tested on: Suit-2 cells; test: SRB antiproliferative assay, Suit-2; assay type: cell-based, human; details: for IC50: Homo sapiens, Suit-2, 72 h, mean ± SEM, read-out: Half-maximal inhibitory concentration (IC50); for Cell growth percentage: Suit-2, 10 μM, 72 h exposure
Experimental: as §1, §2

[4] = tested on: Capan-1 cells; test: SRB antiproliferative assay, Capan-1; assay type: cell-based, human; details: for Cell growth percentage: Capan-1, 10 μM, 72 h exposure; for IC50: Homo sapiens, Capan-1, 72 h, mean ± SEM, read-out: Half-maximal inhibitory concentration (IC50)
Experimental: as §1, §2

[5] = tested on: PaTu-T cells; test: SRB antiproliferative assay, PaTu-T; assay type: cell-based, human; details: for Cell growth percentage: 10 μM, 72 h exposure; for IC50: Homo sapiens, 72 h, mean ± SEM, read-out: Half-maximal inhibitory concentration (IC50)
Experimental: as §1, §2

[6] = tested on: PDAC-3 cells; test: SRB antiproliferative assay, primary culture PDAC-3; assay type: cell-based, human; details: for IC50: Homo sapiens, PDAC-3, 72 h, mean ± SEM, read-out: Half-maximal inhibitory concentration (IC50); for Cell growth percentage: PDAC-3, 10 μM, 72 h exposure
Experimental: as §1, §2

[7] = tested on: Panc-1-GR cells; test: SRB antiproliferative assay, gemcitabine-resistant Panc-1-GR; assay type: cell-based, human; details: for Cell growth percentage: 10 μM, 72 h exposure; for IC50: Homo sapiens, 72 h, mean ± SEM, read-out: Half-maximal inhibitory concentration (IC50)
Experimental: as §1, §2

[8] = tested on: PDAC cells; test: SRB antiproliferative assay, whole PDAC panel; assay type: cell-based; details: Homo sapiens; seven PDAC models, 72 h; read-out: IC50 values, range over the PDAC cell panel
Experimental: as §1, with “The comparison of the average optical density of the growth in control wells with that in the sample wells allowed the estimation of the percentage of cell growth, using the following equation: % Cell Growth = (mean ODcompound − mean ODday zero plate)/(mean ODcells − mean ODday zero plate) × 100” left out

[9] = tested on: BxPC-3 cells; test: Scratch wound-healing assay, BxPC-3; assay type: cell-based, human; details: BxPC-3, 8 h, 4 × IC50, untreated = 100% wound closure
Experimental: Cell migration was assessed using a wound-healing assay, as described previously. A total of 5 × 10^4 cells/well were seeded in a 96-well plate, to form a confluent monolayer. Scratches were created in confluent cell layers using the sterile scratch tool. The detached cells following scratch induction were removed and new medium was added to the wells. Cells were next treated with compounds 3b and 5b at a concentration of 4 × IC50. Cells growing in a complete medium were maintained at 37 °C with a supply of 5% CO2/95% air atmosphere and 100% relative humidity. The progress of wound closure was observed and documented at various time points (0th, 4th, 8th, 20th, and 24th h) using phase-contrast microscopy. Pictures of the plates were taken using the Universal Grab 6.3 software (DCILabs) from a computer connected to a Leica microscope with a JAI TMC-1327 camera.
The percentage of migration was calculated using the following equation:%Migration = (Width of the wound at T = 0 − Width of the wound at T = X)/(Width of the wound at T = 0) × 100

Cn1cc(-c2nnc(-c3c[nH]c4ncccc34)o2)c2ccccc21 [3a, 3-[5-(1-methyl-1H-indol-3-yl)-1,3,4-oxadiazol-2-yl]-7-azaindole]
melting point: 302 °C

Cn1cc(-c2nnc(-c3cn(C)c4ncccc34)o2)c2cc(F)ccc21 [3c, 3-[5-(5-fluoro-1-methyl-1H-indol-3-yl)-1,3,4-oxadiazol-2-yl]-1-methyl-7-azaindole]
melting point: 268 °C

Cn1cc(-c2nnc(-c3cn(C)c4ncccc34)o2)c2cc(Br)ccc21 [3d, 3-[5-(5-bromo-1-methyl-1H-indol-3-yl)-1,3,4-oxadiazol-2-yl]-1-methyl-7-azaindole]
melting point: 277 °C

Cn1cc(-c2nnc(-c3cn(C)c4ncc(Br)cc34)o2)c2ccccc21 [3e, 5-bromo-1-methyl-3-[5-(1-methyl-1H-indol-3-yl)-1,3,4-oxadiazol-2-yl]-7-azaindole]
Cell growth percentage [1]: 58.64%
Cell growth percentage [2]: 61.96%
IC50 [3]: 9.4 ± 4.3 µM
Cell growth percentage [3]: 54.94%
Cell growth percentage [4]: 59.84%
Cell growth percentage [5]: 72.33%
IC50 [6]: 23 ± 0.06 µM
melting point: 244 °C

Cn1cc(-c2nnc(-c3cn(C)c4ncc(Br)cc34)o2)c2cc(Br)ccc21 [3f, 5-bromo-3-[5-(5-bromo-1-methyl-1H-indol-3-yl)-1,3,4-oxadiazol-2-yl]-1-methyl-7-azaindole]
melting point: 275 °C

Cn1cc(-c2nnc(-c3cn(C)c4ncc(Br)cc34)o2)c2cc(F)ccc21 [3g, 5-bromo-3-[5-(5-fluoro-1-methyl-1H-indol-3-yl)-1,3,4-oxadiazol-2-yl]-1-methyl-7-azaindole]
melting point: 310 °C

c1ccc(-c2nnc(-c3c[nH]c4ncccc34)o2)cc1 [4a, 3-(5-phenyl-1,3,4-oxadiazol-2-yl)-7-azaindole]
melting point: 272 °C

Cn1cc(-c2nnc(-c3ccccc3)o2)c2cccnc21 [4b, 1-methyl-3-(5-phenyl-1,3,4-oxadiazol-2-yl)-7-azaindole]
melting point: 201 °C

Brc1cnc2[nH]cc(-c3nnc(-c4ccccc4)o3)c2c1 [4c, 5-bromo-3-(5-phenyl-1,3,4-oxadiazol-2-yl)-7-azaindole]
Cell growth percentage [1]: 21.13%
IC50 [1]: 3.3 ± 2.4 µM
IC50 [2]: 13.4 ± 3.2 µM
Cell growth percentage [2]: 74.33%
Cell growth percentage [7]: 98.62%
IC50 [7]: 10.8 ± 1.4 µM
Cell growth percentage [3]: 60.18%
Cell growth percentage [4]: 75.17%
IC50 [4]: 10.8 ± 0.67 µM
Cell growth percentage [5]: 31.22%
IC50 [5]: 9.7 ± 0.17 µM
Cell growth percentage [6]: 96.60%
melting point: 275 °C

Cn1cc(-c2nnc(-c3ccccc3)o2)c2cc(Br)cnc21 [4d, 5-bromo-1-methyl-3-(5-phenyl-1,3,4-oxadiazol-2-yl)-7-azaindole]
melting point: 236 °C

Cn1cc(-c2nnc(-c3c[nH]c4ncccc34)s2)c2ccccc21 [5a, 3-[5-(1-methyl-1H-indol-3-yl)-1,3,4-thiadiazol-2-yl]-7-azaindole]
melting point: 246 °C

Cn1cc(-c2nnc(-c3cn(C)c4ncccc34)s2)c2ccccc21 [5b, 1-methyl-3-[5-(1-methyl-1H-indol-3-yl)-1,3,4-thiadiazol-2-yl]-7-azaindole]
Cell growth percentage [1]: 32.88%
IC50 [1]: 2.7 ± 0.68 µM
IC50 [2]: 3.5 ± 0.01 µM
Cell growth percentage [2]: 15.68%
Cell growth percentage [7]: 40.65%
IC50 [7]: 9.8 ± 0.05 µM
IC50 [3]: 1.9 ± 0.27 µM
Cell growth percentage [3]: 19.46%
Cell growth percentage [4]: 30.86%
IC50 [4]: 3.3 ± 0.61 µM
Cell growth percentage [5]: 27.73%
IC50 [5]: 3.4 ± 0.06 µM
IC50 [6]: 10.6 ± 0.04 µM
Cell growth percentage [6]: 55.90%
IC50 [8]: 1.9 to 10.6 µM
percentage of cells migrating [9]: 66%
melting point: 244 °C

Cn1cc(-c2nnc(-c3cn(C)c4ncccc34)s2)c2cc(Br)ccc21 [5c, 3-[5-(5-bromo-1-methyl-1H-indol-3-yl)-1,3,4-thiadiazol-2-yl]-1-methyl-7-azaindole]
melting point: 292 °C

Cn1cc(-c2nnc(-c3cn(C)c4ncccc34)s2)c2cc(F)ccc21 [5d, 3-[5-(5-fluoro-1-methyl-1H-indol-3-yl)-1,3,4-thiadiazol-2-yl]-1-methyl-7-azaindole]
melting point: 240 °C

COc1ccc2c(c1)c(-c1nnc(-c3cn(C)c4ncccc34)s1)cn2C [5e, 3-[5-(5-methoxy-1-methyl-1H-indol-3-yl)-1,3,4-thiadiazol-2-yl]-1-methyl-7-azaindole]
melting point: 200 °C

Cn1cc(-c2nnc(-c3cn(C)c4ncc(Br)cc34)s2)c2ccccc21 [5f, 5-bromo-1-methyl-3-[5-(1-methyl-1H-indol-3-yl)-1,3,4-thiadiazol-2-yl]-7-azaindole]
melting point: 233 °C

Cn1cc(-c2nnc(-c3cn(C)c4ncc(Br)cc34)s2)c2cc(Br)ccc21 [5g, 5-bromo-3-[5-(5-bromo-1-methyl-1H-indol-3-yl)-1,3,4-thiadiazol-2-yl]-1-methyl-7-azaindole]
melting point: 275 °C

Cn1cc(-c2nnc(-c3cn(C)c4ncc(Br)cc34)s2)c2cc(F)ccc21 [5h, 5-bromo-3-[5-(5-fluoro-1-methyl-1H-indol-3-yl)-1,3,4-thiadiazol-2-yl]-1-methyl-7-azaindole]
melting point: 290 °C

c1ccc(-c2nnc(-c3c[nH]c4ncccc34)s2)cc1 [6a, 3-(5-phenyl-1,3,4-thiadiazol-2-yl)-7-azaindole]
melting point: 249 °C

Cn1cc(-c2nnc(-c3ccccc3)s2)c2cccnc21 [6b, 1-methyl-3-(5-phenyl-1,3,4-thiadiazol-2-yl)-7-azaindole]
melting point: 191 °C

Brc1cnc2[nH]cc(-c3nnc(-c4ccccc4)s3)c2c1 [6c, 5-bromo-3-(5-phenyl-1,3,4-thiadiazol-2-yl)-7-azaindole]
Cell growth percentage [1]: 54.59%
IC50 [2]: 11.5 ± 1.2 µM
Cell growth percentage [2]: 83.68%
IC50 [3]: 4.1 ± 0.9 µM
Cell growth percentage [3]: 29.80%
Cell growth percentage [4]: 76.76%
IC50 [4]: 12.6 ± 1.3 µM
Cell growth percentage [5]: 56.09%
IC50 [5]: 3.8 ± 1.8 µM
Cell growth percentage [6]: 87.84%
melting point: 308 °C

Cn1cc(-c2nnc(-c3ccccc3)s2)c2cc(Br)cnc21 [6d, 5-bromo-1-methyl-3-(5-phenyl-1,3,4-thiadiazol-2-yl)-7-azaindole]
melting point: 188 °C
